Target: NAD-dependent malic enzyme (Escherichia coli K-12, maeA) (UniProt P26616)
Assay: Inhibition of Escherichia coli K-12 recombinant NAD-dependent malic enzyme by Dixon plot

Chain of NAD-dependent malic enzyme (Escherichia coli K-12, maeA) (P26616 whole entry, looked up): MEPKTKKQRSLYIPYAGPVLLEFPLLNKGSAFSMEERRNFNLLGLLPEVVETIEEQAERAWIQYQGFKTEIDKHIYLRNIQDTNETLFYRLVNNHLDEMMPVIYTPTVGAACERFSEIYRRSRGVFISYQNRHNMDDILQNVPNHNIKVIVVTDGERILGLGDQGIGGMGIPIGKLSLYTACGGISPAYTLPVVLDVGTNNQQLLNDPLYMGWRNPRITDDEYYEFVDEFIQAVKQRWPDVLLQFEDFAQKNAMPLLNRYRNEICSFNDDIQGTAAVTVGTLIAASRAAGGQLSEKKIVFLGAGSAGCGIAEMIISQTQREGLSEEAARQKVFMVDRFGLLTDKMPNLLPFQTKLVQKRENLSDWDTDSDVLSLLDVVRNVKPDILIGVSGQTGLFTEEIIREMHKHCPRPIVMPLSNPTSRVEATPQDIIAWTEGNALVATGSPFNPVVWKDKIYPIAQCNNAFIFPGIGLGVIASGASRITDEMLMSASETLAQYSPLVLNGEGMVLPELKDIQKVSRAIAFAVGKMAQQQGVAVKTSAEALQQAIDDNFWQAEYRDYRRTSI

COc1ccc(-c2cn([C@@H]3O[C@H](COP(=O)(O)O)[C@@H](O)[C@H]3O)nn2)cc1 [5-O-phosphate-1-N-(4'-(4''-methoxyhenyl))-[1',2',3']-triazol-beta-D-ribofuranoside]
Ki: 57 µM

Source: BindingDB's records for doi:10.1016/j.bmcl.2011.01.107 (Institute of Chemical Physics, 2011)
